Source: a melting point compilation (Tetko et al.; mined from patent text by program, amines drawn as free bases though some values may be those of a salt)

Row | SMILES | melting point [°C]
1 | O=c1[nH]c2ccc(-c3cc(CN4CCC(Cc5ccc(F)cc5)CC4)on3)cc2o1 | 237 to 244
2 | O=C1NNC(c2ccc3c(c2)CC2(CCN(C4CCC4)CC2)O3)C2C=C12 (configuration not stated) | 189 to 191
3 | CS(=O)(=O)Nc1ccc([N+](=O)[O-])nc1 | 187 to 189
4 | CC(C)CCn1c(=O)c(=NNc2ccccc2)c(=O)n(-c2ccccc2)c2ccccc21 | 143
5 | CCOC(=O)C(=CC=C(SC)C(=O)c1ccccc1)N(C)C | 78
6 | CC(=O)OCC1OC(SC(c2ccccc2)(c2ccccc2)c2ccccc2)C(OC(C)=O)C(OC(C)=O)C1OC(C)=O (configuration not stated) | 178 to 180
7 | N#Cc1ccc(N(Cc2ccc(OCc3ccccc3)cc2)n2cnnc2)cc1-c1ccoc1 | 155 to 156
8 | CC(C)(C)NC1=NCCNC(c2ccccc2)=C1 | 93 to 97
9 | CCCCCCCCC=CCCCCCCCCN1CC(C(=O)OC)N(S(=O)(=O)c2ccc(-c3ccc(Br)cc3)cc2)CC1=O (configuration not stated) | 108
10 | O=C1CC(C(F)(F)F)CC(=O)N1c1cc(OCC=C(Cl)Cl)c(Cl)cc1F | 106 to 108
11 | Cc1cc(C(O)(C(F)(F)F)C(F)(F)F)cc(C)c1NCCN(C)C | 112 to 115
12 | O=C(C=Cc1ccccc1)c1cc(Cl)ccc1O | 142 to 145
13 | CCOC(=O)C1=CC2(CCC1S(=O)(=O)Nc1ccc(F)cc1Cl)OCCCO2 (configuration not stated) | 120 to 121
14 | OCCOc1ccc2ncccc2c1 | 68 to 70
15 | NN(C(=O)c1ccc(Cl)c(S(N)(=O)=O)c1)c1ccc(C(=O)c2ccccc2)cc1[N+](=O)[O-] | 148
16 | CCN1CCC2(CC1)COc1cc3c(cc12)N(C(=O)c1ccc(-c2ccc(C(=O)NN)cc2C)cc1)CC3 | 222 to 225
17 | CCCCOc1cc(/C=C(\OCC)C(=O)O)ccc1CCCc1ccc(OC)cc1 | 65
18 | Fc1ccccc1Cn1cnc2c(Nn3ccc4ccccc43)ncnc21 | 236 to 238
19 | CC1(C(=O)O)CCc2onc(-c3ccc(Cl)cc3)c2CC1 (configuration not stated) | 163

Row | SMILES | melting point [°C]
20 | COc1cccc(Oc2cccc3c2C2(COc4cc5c(cc42)OCCO5)C(=O)N3C)c1 (configuration not stated) | 166 to 168
21 | Clc1ccc2scc(Br)c2c1 | 85 to 86
22 | Cc1ccc(S(=O)(=O)OCCn2c([N+](=O)[O-])cnc2C=CN(C)C)cc1 | 116 to 118
23 | CC(=O)NC1CCN(c2nc(Nc3ccc(F)cc3F)c(C(=O)O)cc2F)C1 (configuration not stated) | 232 to 234
24 | Cc1ccc(-c2coc3cc(O)cc(O)c3c2=O)cc1 | 215 to 217
25 | Nc1sc2c(c1C(=O)c1ccc(Br)s1)CCN(Cc1ccccc1)C2 | 87 to 89
26 | CCn1cc(C(=O)O)c(=O)c2cc(F)c(N3CCN(C)C(c4ccco4)C3)cc21 (configuration not stated) | 209 to 212
27 | CSc1nnc(-c2cccs2)n1C | 83 to 85
28 | CCC[C@H]1CCC[C@H](N2C(=O)c3ccccc3C2=O)C(=O)N1 | 146 to 151
29 | CCCn1c([N+](=O)[O-])cnc1-c1cnc(N)s1 | 234 to 236
30 | O=C(O)COc1c(-c2cc(Cl)cc(Cl)c2)cc(C(=O)NCCCCCCCCc2ccccc2)cc1-c1cc(Cl)cc(Cl)c1 | 139 to 149
31 | CCCCC(Cc1ccc(OCCNC(=O)c2ccc(-c3cccc(CN(C)C)c3)cc2)cc1)C(=O)O (configuration not stated) | 95 to 97
32 | CC12CC=C3C(CCC4(CCC#N)CC(O[Si](C)(C)C(C)(C)C)CCC34C)C1CCC2O[Si](C)(C)C(C)(C)C (configuration not stated) | 194 to 195
33 | CCOC(=O)/C(=N/OC)c1ccc(OCCOc2ccc3ccccc3c2)s1 | 132 to 134
34 | CC12CC(N3CCCCC3)C(O)CC1CCC1C2CCC2(C)C(O)C(N3CCC4(CC3)OCCO4)CC12 (configuration not stated) | 183 to 185
35 | N#CNC(=S)Nc1ccc(F)cc1 | > 270
36 | CCCCN(CC(=O)O)S(=O)(=O)c1ccc(N2CCC(NC[C@H](O)c3ccc(O)c(NS(C)(=O)=O)c3)CC2)cc1 | 125 to 138
37 | Cc1c(CO)c(CO)c2sc3ccccc3n12 | 138 to 139
38 | Fc1cccc(F)c1-c1nc(/C=C/c2ccc(C3CCCCC3)cc2)no1 | 86 to 87

Row | SMILES | melting point [°C]
39 | Clc1ccc(CN2CCN=C2C(Cn2ccnc2)c2ccccc2)c(Cl)c1 (configuration not stated) | 120 to 135
40 | Cc1c(Cc2cccc(C(F)(F)F)c2)sc2c(-c3cccc(C(=O)NCCO)c3)cccc12 | 140 to 145
41 | O=C1CCCCC1C(C[N+](=O)[O-])c1ccc(Cl)c(Cl)c1 (racemic) | 109 to 110
42 | O=S(=O)(Nc1ccccc1OC1CCCCC1)C(F)(F)F | 83 to 85
43 | O=Cc1c(O)cccc1OCc1ccccc1C(=O)O | 218 to 220
44 | CC1(C)CN(C2CCN(CCc3ccc(F)cc3)CC2)c2cc(CN)ccc21 | 131 to 133
45 | C=CC(=O)OCC=C(C)CCC=C(C)CCC=C(C)CCC=C(C)CCC=C(C)CCC=C(C)CCC=C(C)CCC=C(C)CCC=C(C)CCC=C(C)C | 32 to 32.8
46 | COc1ccc(CC(=O)c2ccc(OCc3ccccc3)cc2)cc1 | 147 to 148
47 | Cn1ccnc1-c1ccccc1Nc1nc(Nc2ccc3c(c2)CCC(=O)CC3)ncc1Cl | 149
48 | Cc1ccc(-c2nc(COc3ccc(CCCCn4ccnc4)cc3)cs2)s1 | 81 to 82
49 | CC(=O)C(=O)Nc1ccc(C#N)c(C(F)(F)F)c1 | 147 to 148
50 | CC(=O)Nc1ccc(S(=O)(=O)N(Cc2cc(C(C)(C)C)c(O)c(C(C)(C)C)c2)c2cccnc2)cc1 | 167 to 169
51 | Cc1cccc2nn(-c3cc(O)ccc3O)nc12 | 202 to 203
52 | CCCCCCCCCCCCCCOCc1ccc(C(C)=O)o1 | 61 to 62
53 | N#Cc1cc(C2=NOC(c3cc(Cl)cc(Cl)c3)(C(F)(F)F)C2)ccc1-n1cncn1 (configuration not stated) | 118 to 125
54 | CCc1ccc2[nH]c3c(=O)n(CCN(C)C)c4ccccc4c3c2c1 | 266 to 268
55 | CC(=O)N1CCCC(=O)c2ccc(Cl)cc2C(c2ccccc2)CC1=O (configuration not stated) | 184 to 185
56 | CC(C#N)(c1ccc(Cl)c(C(F)(F)F)c1)c1ccc([N+](=O)[O-])cc1Cl (configuration not stated) | 162

More lines, now with the values ahead:

Row | melting point [°C] | SMILES
57 | 221 | Nc1cc(Sc2ccc3c(C(=O)Nc4ccc(F)c(C(F)(F)F)c4)cccc3c2)ncn1
58 | 94 | CCOC(=O)COc1ccnc2c(N)cccc12
59 | 160 to 161 | COC(=O)c1cc(-c2nc(CCl)c(C)o2)ccc1OS(C)(=O)=O
60 | 91 to 92 | COC(=O)[C@H](C)NC(=O)CCCN(C(=O)c1ccc(Cl)cc1)c1c(C)cccc1C
61 | 191 | Cc1cccc2[nH]c3cc(O)ccc3c12
62 | 161 to 162 | CSc1ccc(CSc2cccc(C(=O)Nc3ccc(C#N)cn3)c2)cc1
63 | 248 to 250 | CN(C)c1ccc(NC(=O)Cn2c(-c3ccc(Br)cc3)nc3cccnc32)cc1
64 | 210 to 216 | C#CCCCC(=O)Nc1nc2nn(C)cc2c2nc(-c3ccco3)nn12
65 | 63 to 66 | CC1(C)CC(=O)c2ccc(Cl)cc2O1
66 | 148 to 150 | CCOC(=O)c1sc2ccc(Cl)cc2c1CBr
67 | 178 to 180 | CC(C)(C)OC(=O)NC1CCC(C(=O)N2CCC(c3[nH]nc4c3C(=O)c3c(NC(=O)NN5CCOCC5)cccc3-4)CC2)CC1 (configuration not stated)
68 | 125 to 127 | CCCCc1c(C)[nH]c(C(=O)OCC)c1OCC1CO1 (configuration not stated)
69 | 141 to 143 | C=Cc1ccc(OC)cc1C1C(C(=O)OC)=C(C)NC(C)=C1C(=O)OC
70 | 194 to 196 | CC(C)Oc1c(C(=O)Nc2nnn[nH]2)[nH]c(Br)c1Br
71 | 175 to 180 | COCC(=O)Nc1nc(NC(=O)COC)nc(NC2CC2)n1
72 | 72.5 to 74 | CC(C)Oc1cc(-n2nc(C(C)(C)C)oc2=O)ccc1F
73 | 203 to 206 | Cc1cc(Cn2nc(C(F)(F)C(F)(F)F)nc2C(F)(F)F)ccc1NC(=O)c1cccc(Cl)c1C(=O)NC(C)(C)C=NO
74 | 107 to 108 | CCOC(=O)c1[nH]c2c(C)ccc(C)c2c1-c1ccccc1
75 | 101 to 102 | COC(=O)c1cc(N)n(C)n1
76 | 89 to 90 | CS(=O)(=O)c1ccc(C(CC2CCOCC2)c2ccc(-c3ccccn3)[nH]2)cn1 (configuration not stated)
77 | 219 to 220 | CNN=C1CCC(C)n2c1ncc(C(=O)O)c2=O (configuration not stated)

Row | melting point [°C] | SMILES
78 | 110 to 120 | Cc1cc(-c2cccc(NC(=O)N[C@@H]3c4cc(C#N)ccc4OC(C)(C)[C@H]3O)c2)no1
79 | 243 | Cn1ncc(C(=O)N2CC(F)C2)c1C(=O)Nc1ccc2nc(-c3ccccc3)nn2c1
80 | 122 to 124 | CCCc1ccc(NC(C)=O)cn1
81 | 166 | COCCOc1ccc(/C=C/C(=O)O)c(Oc2ccc(C(F)(F)F)cc2Cl)c1
82 | 174 to 176 | CCCC(=O)c1cnn(C)c1S(=O)(=O)NC(=O)Nc1nc(C)nc(OC)n1
83 | 37 to 41 | CC(C)CCCC(C)NC(=O)Oc1ccc(Oc2ccccc2)cc1F (configuration not stated)
84 | 185 to 187 | Cc1cc(C=NO)cc(Oc2nc(Cl)nc(Cl)c2C(C)C)c1
85 | 79 to 81 | COC(=O)C1=CSCC1OC (configuration not stated)
86 | 58 to 60 | COC(=O)c1cc(C(C)(C)C(=O)OC)ccc1N
87 | 136 to 139 | COc1ccc(C(C)(C)C)cc1C(=O)c1cc([N+](=O)[O-])ccc1Cl
88 | 191 to 192 | COc1ccc(-c2nc(C(=O)C(F)(F)F)[nH]c2-c2ccc(OC)cc2)cc1
89 | 92 to 94 | CCC(=O)OC(C#N)C(C#N)c1ccc(OC)c(OC)c1 (configuration not stated)
90 | 202 to 203 | CNC(=O)c1cc(C(=O)OC)cc(C(=O)NC)n1
91 | 136 to 138 | CC(C(=O)c1c(O)c2cccnc2n(-c2cccc(OC(F)(F)F)c2)c1=O)c1ccccc1 (configuration not stated)
92 | 47 to 49 | Cc1cc([N+](=O)[O-])c(C(=O)OC(C)C)cc1Oc1ccc(OC(F)(F)F)cc1
93 | > 300 | COc1ccc(-c2nc3cc4nc[nH]c(=O)c4cc3[nH]2)cc1
94 | 111 to 112 | CCCc1c(OCCCOc2ccc(CC(=O)O)cc2Br)ccc(C(C)=O)c1O
95 | 93 | COc1ccc(CCNC(=O)C(F)(F)F)cc1OC
96 | 127 to 129 | CCOC(=O)c1cn2c(cc(OC(C)C)c3ccccc32)n1
97 | 195 to 197 | CCCCc1[nH]c(=O)c(C#N)cc1C(C)=O
